Holding throughout (assay): Kinase panel profiling at 1 µmol/L (MSA or IMAP), percentage inhibition
What all share (format): biochemical

For experiment [1], the target named is panel of 255 wild-type kinases (Homo sapiens, UniProt P07948). As to conditions: kinase LYNa; 1 µmol/L single concentration; read-out: %-inhibition at 1 µmol/L, LYNa.
The target in experiment [2] is panel of 255 wild-type kinases (Homo sapiens, UniProt P08581). As to conditions: MET; 1 µmol/L single concentration.
Experiment [3] addresses T1, panel of 255 wild-type kinases (Homo sapiens, UniProt Q16832).
T1 sequence (Q16832 22-855): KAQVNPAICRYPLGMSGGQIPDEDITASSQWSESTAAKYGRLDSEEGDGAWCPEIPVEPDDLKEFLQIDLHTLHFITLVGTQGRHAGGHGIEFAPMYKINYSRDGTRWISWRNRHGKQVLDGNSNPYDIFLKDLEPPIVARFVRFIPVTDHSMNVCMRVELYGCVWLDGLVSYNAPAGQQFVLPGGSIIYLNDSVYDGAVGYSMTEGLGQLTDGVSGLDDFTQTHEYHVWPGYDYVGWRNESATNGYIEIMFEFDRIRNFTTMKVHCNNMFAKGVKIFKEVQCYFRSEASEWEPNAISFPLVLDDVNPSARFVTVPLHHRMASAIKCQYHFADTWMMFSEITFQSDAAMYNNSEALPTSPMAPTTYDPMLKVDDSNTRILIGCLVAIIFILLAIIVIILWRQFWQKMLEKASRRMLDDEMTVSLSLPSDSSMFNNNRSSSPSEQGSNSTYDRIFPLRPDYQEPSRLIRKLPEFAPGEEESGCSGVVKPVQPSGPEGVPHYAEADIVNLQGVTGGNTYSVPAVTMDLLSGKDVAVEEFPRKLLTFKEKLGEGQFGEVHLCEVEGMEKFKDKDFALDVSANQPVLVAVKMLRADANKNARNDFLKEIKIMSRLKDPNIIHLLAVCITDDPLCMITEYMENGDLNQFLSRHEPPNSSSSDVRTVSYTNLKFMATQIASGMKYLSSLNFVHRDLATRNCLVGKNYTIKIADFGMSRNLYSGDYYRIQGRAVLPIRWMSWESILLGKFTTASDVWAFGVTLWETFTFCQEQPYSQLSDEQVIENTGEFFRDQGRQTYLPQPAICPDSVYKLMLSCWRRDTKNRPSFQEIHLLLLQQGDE
Conditions: kinase DDR2; 1 µmol/L single concentration; read-out: %-inhibition at 1 µmol/L, DDR2.

Experiment [4] addresses panel of 255 wild-type kinases (Homo sapiens, UniProt P05129). Conditions: kinase PKCγ; 1 µmol/L single concentration; read-out: %-inhibition at 1 µmol/L, PKCγ.
Experiment [5] deals with panel of 255 wild-type kinases (Homo sapiens, UniProt P78368). Conditions: kinase CK1γ2; 1 µmol/L single concentration; read-out: %-inhibition at 1 µmol/L, CK1γ2.
Experiment [6] concerns the target panel of 255 wild-type kinases (Homo sapiens, UniProt P07332). As to conditions: kinase FES; 1 µmol/L single concentration; read-out: %-inhibition at 1 µmol/L, FES.
Experiment [7] deals with T2, panel of 255 wild-type kinases (Homo sapiens, UniProt P42680).
T2 sequence (P42680 1-631): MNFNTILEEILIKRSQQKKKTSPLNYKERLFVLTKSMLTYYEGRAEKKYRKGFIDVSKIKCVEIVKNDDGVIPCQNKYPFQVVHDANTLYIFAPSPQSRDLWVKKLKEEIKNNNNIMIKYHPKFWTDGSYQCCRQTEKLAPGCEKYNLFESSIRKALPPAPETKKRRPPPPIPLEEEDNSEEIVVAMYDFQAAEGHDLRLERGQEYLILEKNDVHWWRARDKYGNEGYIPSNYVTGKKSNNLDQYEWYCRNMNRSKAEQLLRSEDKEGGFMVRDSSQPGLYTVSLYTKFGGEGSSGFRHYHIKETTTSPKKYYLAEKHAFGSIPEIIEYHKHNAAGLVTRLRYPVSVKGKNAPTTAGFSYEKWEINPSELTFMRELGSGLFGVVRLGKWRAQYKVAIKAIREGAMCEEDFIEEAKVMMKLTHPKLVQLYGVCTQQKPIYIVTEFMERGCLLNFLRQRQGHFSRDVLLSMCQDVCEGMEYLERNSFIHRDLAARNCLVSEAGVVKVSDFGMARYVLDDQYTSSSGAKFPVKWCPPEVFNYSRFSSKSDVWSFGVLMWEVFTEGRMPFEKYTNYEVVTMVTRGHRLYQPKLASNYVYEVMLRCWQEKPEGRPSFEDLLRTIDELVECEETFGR
Conditions: kinase TEC; 1 µmol/L single concentration; read-out: %-inhibition at 1 µmol/L, TEC.

The target in experiment [8] is T3, panel of 255 wild-type kinases (Homo sapiens, UniProt Q9HBY8).
T3 sequence (Q9HBY8 1-367): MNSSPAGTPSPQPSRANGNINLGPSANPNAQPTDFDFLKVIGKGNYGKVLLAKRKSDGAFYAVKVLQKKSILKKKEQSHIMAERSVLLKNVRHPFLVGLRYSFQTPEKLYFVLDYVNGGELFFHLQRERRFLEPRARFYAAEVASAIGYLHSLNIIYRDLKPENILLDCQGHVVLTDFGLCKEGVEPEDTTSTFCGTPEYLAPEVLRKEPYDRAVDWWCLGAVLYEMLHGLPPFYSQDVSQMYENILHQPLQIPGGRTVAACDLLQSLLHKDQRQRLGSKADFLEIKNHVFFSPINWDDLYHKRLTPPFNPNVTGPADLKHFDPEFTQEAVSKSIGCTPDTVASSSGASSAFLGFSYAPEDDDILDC
As to conditions: kinase SGK2; 1 µmol/L single concentration; read-out: %-inhibition at 1 µmol/L, SGK2.

Experiment [9] has as its target panel of 255 wild-type kinases (Homo sapiens, UniProt P06241). As to conditions: kinase FYN [isoform a]; 1 µmol/L single concentration; read-out: %-inhibition at 1 µmol/L, FYN [isoform a].
In experiment [10] the target is panel of 255 wild-type kinases (Homo sapiens, UniProt P06493). As to conditions: CDC2/CycB1 kinase assay; 1 µmol/L single concentration; read-out: %-inhibition CDC2/CycB1.
The target of experiment [11] is panel of 255 wild-type kinases (Homo sapiens, UniProt P41240). As to conditions: kinase CSK; 1 µmol/L single concentration; read-out: %-inhibition at 1 µmol/L, CSK.
Experiment [12] has as its target panel of 255 wild-type kinases (Homo sapiens, UniProt Q9Y5S2). Conditions: MRCKβ; 1 µmol/L single concentration; read-out: %-inhibition, MRCKβ.

In the case of `C[C@H](Nc1ncnc2nc[nH]c12)c1cc2cccc(Cl)c2c(=O)n1-c1ccccc1` [duvelisib], the inhibition at 1 µM is 0.825% in [1]; 1.63% in [2]; 8% in [3]; -4.38% in [4]; 2.74% in experiment [5]; -0.806% in [6]. In addition, the inhibition at 1 µM in experiment [7] was 1.84%; in experiment [8], -2.27%; in [9], 0.67%; in [10], -0.937%; in [11], 1.86%; in [12], -7%.
Turning to `COC(=O)N[C@@H](C)CNc1nccc(-c2cn(C(C)C)nc2-c2cc(Cl)cc(NS(C)(=O)=O)c2F)n1` [encorafenib], the inhibition at 1 µM is 5% in [1]; 2.82% in experiment [2]; -7% in experiment [3]; 4% in experiment [4]; 31% in experiment [5]; 7% in experiment [6]. Further, the inhibition at 1 µM in experiment [7] is -1.53%; in [8], 3.5%; in experiment [9] it was 6%; in experiment [10], 8%; in experiment [11], 1.58%; in experiment [12], 1.73%.
Turning to `CN1CCN(c2ccc(C(=O)Nc3n[nH]c4ccc(Cc5cc(F)cc(F)c5)cc34)c(NC3CCOCC3)c2)CC1` [entrectinib], the inhibition at 1 µM came out at 74% in experiment [1]; 24% in experiment [2]; 100% in [3]; 1% in experiment [4]; 0.857% in [5]; 68% in experiment [6]. Besides, the inhibition at 1 µM in experiment [7] is 97%; in [8], -3.18%; in experiment [9], 96%; in [10], 3.63%; in experiment [11], 8%; in experiment [12], -7%.
On to `CCc1nc(C(N)=O)c(Nc2ccc(N3CCC(N4CCN(C)CC4)CC3)c(OC)c2)nc1NC1CCOCC1` [gilteritinib], for which the inhibition at 1 µM in [1] was found to be 88%; in experiment [2], 90%; in experiment [3], 99%; in [4] it was 19%; in experiment [5], 6.55%; in [6], 76%. In addition, the inhibition at 1 µM was 44% in experiment [7]; -3.51% in [8]; 84% in experiment [9]; 26% in [10]; 23% in experiment [11]; 47% in experiment [12].
On to `CCN1CCN(c2ccc(Nc3cc(N(C)C(=O)Nc4c(Cl)c(OC)cc(OC)c4Cl)ncn3)cc2)CC1` [infigratinib], for which the inhibition at 1 µM was 84% in experiment [1]; 0.848% in experiment [2]; 63% in [3]; 0.114% in experiment [4]; -12% in experiment [5]; 20% in experiment [6]. In addition, the inhibition at 1 µM in [7] was 7%; in experiment [8], -8%; in experiment [9], 40%; in experiment [10] it was -9%; in experiment [11] it was 2.24%; in experiment [12], -0.837%.
For `O=C(Nc1cnn2ccc(N3CCC[C@@H]3c3cc(F)ccc3F)nc12)N1CC[C@H](O)C1` [larotrectinib], the inhibition at 1 µM was 5% in experiment [1]; -4% in experiment [2]; 26% in [3]; -1.62% in experiment [4]; -7% in [5]; -1.07% in [6]. Besides, the inhibition at 1 µM in experiment [7] was 1.59%; in experiment [8], -4%; in experiment [9], 1.82%; in experiment [10] it was -7%; in experiment [11] it was -5%; in experiment [12], -2.21%.
For the molecule `CCN1C(=O)N(c2c(F)c(OC)cc(OC)c2F)Cc2cnc3[nH]c(CN4CCOCC4)cc3c21` [pemigatinib], the inhibition at 1 µM is 66% in [1]; -2.49% in [2]; 5% in experiment [3]; -0.948% in experiment [4]; -9% in [5]; 1.55% in experiment [6]. Also, the inhibition at 1 µM is -1.55% in experiment [7]; 8% in experiment [8]; 9% in [9]; 10% in experiment [10]; 2.28% in [11]; -4.4% in experiment [12].
With `CO[C@]1(C(=O)N[C@@H](C)c2ccc(-n3cc(F)cn3)nc2)CC[C@H](c2nc(C)cc(Nc3cc(C)[nH]n3)n2)CC1` [pralsetinib], the inhibition at 1 µM in [1] was 92%; in experiment [2] it was 5.27%; in [3], 102%; in experiment [4], 1.41%; in experiment [5], -13%; in experiment [6], 8%. The inhibition at 1 µM in experiment [7] came out at 95%; in experiment [8] it was 11%; in experiment [9], 82%; in [10], 15%; in experiment [11] it was 0.35%; in [12], 1.9%.

The record behind these values is article PMC9516332 (Frontiers in Oncology, 2022).
